From ChEMBL document CHEMBL5291721, “A preclinical secondary pharmacology resource illuminates target-adverse drug reaction associations of marketed drugs” (Nat Commun, 2023) come the findings set out here.

Assay [1] has as its target Neuronal acetylcholine receptor subunit alpha-4 (Homo sapiens, UniProt P43681).
Assay [2] deals with T1, Neuropeptide Y receptor type 1 (Homo sapiens, UniProt P25929).
T1 sequence (P25929 whole entry): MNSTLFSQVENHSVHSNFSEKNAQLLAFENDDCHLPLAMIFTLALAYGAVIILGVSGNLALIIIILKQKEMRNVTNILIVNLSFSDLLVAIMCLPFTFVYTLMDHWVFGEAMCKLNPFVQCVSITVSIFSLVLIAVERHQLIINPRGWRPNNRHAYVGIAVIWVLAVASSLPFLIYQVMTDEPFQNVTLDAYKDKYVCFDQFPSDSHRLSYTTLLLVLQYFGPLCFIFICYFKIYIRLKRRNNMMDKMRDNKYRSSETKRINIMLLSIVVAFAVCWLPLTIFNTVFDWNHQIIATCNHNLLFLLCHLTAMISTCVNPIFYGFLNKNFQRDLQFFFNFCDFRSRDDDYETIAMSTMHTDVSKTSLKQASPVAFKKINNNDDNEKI

In assay [3] the target is Growth hormone secretagogue receptor type 1 (Homo sapiens, UniProt Q92847).
Growth hormone secretagogue receptor type 1, sequence (Q92847 whole entry): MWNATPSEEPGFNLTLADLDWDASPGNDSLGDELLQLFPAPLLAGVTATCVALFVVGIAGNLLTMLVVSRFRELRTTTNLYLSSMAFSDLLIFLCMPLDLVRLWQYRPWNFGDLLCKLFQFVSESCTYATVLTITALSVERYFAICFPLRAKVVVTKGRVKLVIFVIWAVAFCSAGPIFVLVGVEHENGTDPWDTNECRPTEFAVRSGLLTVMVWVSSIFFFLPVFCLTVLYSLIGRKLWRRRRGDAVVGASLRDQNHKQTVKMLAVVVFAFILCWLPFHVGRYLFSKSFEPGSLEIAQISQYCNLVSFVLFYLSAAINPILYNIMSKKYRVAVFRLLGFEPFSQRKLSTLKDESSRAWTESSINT
Assay [4] has as its target T2, 5-hydroxytryptamine receptor 1A (Homo sapiens, UniProt P08908).
T2 sequence (P08908 whole entry): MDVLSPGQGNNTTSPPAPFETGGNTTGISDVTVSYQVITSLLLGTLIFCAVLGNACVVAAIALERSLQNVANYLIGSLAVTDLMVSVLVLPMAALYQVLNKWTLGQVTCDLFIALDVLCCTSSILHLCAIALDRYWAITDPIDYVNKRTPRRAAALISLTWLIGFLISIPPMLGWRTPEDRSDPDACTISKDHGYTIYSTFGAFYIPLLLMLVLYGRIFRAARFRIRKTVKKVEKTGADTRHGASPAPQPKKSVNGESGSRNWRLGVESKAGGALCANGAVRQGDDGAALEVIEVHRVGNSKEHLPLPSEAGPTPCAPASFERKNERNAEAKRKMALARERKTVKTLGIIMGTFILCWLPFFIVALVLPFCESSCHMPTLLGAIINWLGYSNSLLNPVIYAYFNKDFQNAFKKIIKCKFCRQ
In kind it is functional, cell-based.

In the next assay the target is Histamine H2 receptor (Homo sapiens, UniProt P25021). In kind it is functional, cell-based.
Histamine H2 receptor, sequence (P25021 whole entry): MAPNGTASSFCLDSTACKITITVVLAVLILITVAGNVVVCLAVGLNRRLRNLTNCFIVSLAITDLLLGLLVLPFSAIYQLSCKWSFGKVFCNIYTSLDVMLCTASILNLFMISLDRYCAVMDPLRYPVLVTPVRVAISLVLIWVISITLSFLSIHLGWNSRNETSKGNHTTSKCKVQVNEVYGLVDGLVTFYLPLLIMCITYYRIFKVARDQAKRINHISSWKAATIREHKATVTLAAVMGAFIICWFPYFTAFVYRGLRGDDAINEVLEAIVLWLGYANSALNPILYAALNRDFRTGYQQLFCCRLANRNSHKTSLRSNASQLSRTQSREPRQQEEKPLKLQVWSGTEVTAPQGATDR
Assay [5] concerns the target Beta-1 adrenergic receptor (Homo sapiens, UniProt P08588). In kind it is functional.
The next assay addresses Adenosine receptor A2a (Homo sapiens, UniProt P29274).
Assay [6] addresses Sodium-dependent noradrenaline transporter (Homo sapiens, UniProt P23975).
For assay [7], the target named is T3, Alpha-1A adrenergic receptor (Homo sapiens, UniProt P35348).
T3 sequence (P35348 whole entry): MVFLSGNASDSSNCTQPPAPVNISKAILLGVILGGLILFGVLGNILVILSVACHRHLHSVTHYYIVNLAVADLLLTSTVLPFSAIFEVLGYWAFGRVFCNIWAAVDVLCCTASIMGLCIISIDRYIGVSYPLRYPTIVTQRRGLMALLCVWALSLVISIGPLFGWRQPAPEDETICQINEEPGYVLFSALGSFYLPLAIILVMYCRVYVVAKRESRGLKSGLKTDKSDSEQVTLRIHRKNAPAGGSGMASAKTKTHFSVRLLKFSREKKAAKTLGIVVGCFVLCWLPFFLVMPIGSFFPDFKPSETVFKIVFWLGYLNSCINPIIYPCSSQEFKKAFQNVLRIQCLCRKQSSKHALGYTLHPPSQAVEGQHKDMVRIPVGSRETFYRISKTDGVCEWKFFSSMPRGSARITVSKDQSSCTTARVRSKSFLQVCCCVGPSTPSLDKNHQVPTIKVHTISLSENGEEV
The assay is classed as functional, cell-based.

Assay [8] has as its target T4, Type-1 angiotensin II receptor (Homo sapiens, UniProt P30556).
T4 sequence (P30556 whole entry): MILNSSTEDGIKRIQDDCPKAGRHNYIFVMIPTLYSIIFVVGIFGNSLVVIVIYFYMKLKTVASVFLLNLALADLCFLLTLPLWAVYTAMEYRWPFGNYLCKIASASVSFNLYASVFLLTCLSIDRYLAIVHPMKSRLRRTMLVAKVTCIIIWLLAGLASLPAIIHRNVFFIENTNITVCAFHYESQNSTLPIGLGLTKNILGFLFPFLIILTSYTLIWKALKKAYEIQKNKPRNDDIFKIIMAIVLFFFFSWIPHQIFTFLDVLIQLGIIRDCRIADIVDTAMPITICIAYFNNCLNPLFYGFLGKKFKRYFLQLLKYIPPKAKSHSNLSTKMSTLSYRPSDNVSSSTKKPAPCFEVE

In another assay the target is T5, Adenosine receptor A3 (Homo sapiens, UniProt P0DMS8).
T5 sequence (P0DMS8 whole entry): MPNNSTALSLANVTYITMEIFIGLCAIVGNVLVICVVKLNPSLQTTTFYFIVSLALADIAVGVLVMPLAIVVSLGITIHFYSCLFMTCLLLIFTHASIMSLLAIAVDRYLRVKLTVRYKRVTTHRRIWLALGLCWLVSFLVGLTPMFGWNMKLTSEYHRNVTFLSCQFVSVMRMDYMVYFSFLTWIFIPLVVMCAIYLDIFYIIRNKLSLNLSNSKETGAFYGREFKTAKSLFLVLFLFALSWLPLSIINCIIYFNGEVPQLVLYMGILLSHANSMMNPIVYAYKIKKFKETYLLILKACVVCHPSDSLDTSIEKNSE

Assay [9] has as its target T6, Equilibrative nucleoside transporter 1 (Homo sapiens, UniProt Q99808).
T6 sequence (Q99808 whole entry): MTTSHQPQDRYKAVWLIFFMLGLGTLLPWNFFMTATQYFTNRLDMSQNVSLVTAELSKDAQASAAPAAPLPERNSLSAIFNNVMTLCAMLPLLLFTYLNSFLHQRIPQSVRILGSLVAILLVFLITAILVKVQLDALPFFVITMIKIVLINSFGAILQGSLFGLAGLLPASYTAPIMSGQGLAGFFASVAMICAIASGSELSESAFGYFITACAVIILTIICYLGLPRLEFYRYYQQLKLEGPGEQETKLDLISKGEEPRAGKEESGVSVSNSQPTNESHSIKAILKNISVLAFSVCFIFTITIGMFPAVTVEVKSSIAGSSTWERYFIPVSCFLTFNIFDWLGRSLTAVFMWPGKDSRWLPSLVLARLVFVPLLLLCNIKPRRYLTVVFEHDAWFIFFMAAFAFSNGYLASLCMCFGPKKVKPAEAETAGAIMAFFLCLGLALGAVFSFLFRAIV
Note: assay procedure not described here.

Sodium-dependent noradrenaline transporter, sequence (P23975 whole entry): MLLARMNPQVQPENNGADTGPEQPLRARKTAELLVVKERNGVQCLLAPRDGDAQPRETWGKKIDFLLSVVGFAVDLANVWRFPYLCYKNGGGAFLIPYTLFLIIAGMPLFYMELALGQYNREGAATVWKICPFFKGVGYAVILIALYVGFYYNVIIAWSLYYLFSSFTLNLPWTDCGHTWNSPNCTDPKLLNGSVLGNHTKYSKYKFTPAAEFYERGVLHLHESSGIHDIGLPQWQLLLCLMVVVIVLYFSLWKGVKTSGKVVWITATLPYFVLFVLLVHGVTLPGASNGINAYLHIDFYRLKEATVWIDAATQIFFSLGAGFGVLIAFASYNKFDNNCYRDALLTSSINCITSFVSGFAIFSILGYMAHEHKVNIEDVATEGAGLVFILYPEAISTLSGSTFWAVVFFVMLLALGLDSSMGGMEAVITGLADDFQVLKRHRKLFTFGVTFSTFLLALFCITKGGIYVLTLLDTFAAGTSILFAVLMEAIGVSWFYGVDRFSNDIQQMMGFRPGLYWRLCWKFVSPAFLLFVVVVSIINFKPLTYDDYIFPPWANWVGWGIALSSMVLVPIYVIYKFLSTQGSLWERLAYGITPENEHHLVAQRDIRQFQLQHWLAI
Adenosine receptor A2a, sequence (P29274 whole entry): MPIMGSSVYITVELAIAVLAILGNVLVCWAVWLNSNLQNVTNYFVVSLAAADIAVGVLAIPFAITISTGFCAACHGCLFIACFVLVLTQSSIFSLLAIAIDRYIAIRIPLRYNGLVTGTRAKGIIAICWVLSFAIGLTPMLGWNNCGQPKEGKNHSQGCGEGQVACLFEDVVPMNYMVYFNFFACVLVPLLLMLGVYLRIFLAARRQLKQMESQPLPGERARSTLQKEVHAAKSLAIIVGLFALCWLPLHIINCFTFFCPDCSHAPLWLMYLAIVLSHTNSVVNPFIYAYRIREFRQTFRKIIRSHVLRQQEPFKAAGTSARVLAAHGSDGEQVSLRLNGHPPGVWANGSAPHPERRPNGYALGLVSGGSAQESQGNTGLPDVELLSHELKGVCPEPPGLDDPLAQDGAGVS
Beta-1 adrenergic receptor, sequence (P08588 whole entry): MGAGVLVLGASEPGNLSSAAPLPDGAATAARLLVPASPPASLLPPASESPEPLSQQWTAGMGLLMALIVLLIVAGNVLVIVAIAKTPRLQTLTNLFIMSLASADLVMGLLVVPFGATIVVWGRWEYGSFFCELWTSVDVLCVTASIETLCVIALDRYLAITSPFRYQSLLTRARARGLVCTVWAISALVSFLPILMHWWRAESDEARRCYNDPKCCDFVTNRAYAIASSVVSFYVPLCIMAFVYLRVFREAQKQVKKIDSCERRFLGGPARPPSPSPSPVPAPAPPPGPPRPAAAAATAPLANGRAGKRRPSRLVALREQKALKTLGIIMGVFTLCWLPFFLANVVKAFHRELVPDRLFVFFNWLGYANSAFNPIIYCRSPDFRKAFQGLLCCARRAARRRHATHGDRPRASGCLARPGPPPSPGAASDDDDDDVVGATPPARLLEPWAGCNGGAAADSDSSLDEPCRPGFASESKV
Neuronal acetylcholine receptor subunit alpha-4, sequence (P43681 whole entry): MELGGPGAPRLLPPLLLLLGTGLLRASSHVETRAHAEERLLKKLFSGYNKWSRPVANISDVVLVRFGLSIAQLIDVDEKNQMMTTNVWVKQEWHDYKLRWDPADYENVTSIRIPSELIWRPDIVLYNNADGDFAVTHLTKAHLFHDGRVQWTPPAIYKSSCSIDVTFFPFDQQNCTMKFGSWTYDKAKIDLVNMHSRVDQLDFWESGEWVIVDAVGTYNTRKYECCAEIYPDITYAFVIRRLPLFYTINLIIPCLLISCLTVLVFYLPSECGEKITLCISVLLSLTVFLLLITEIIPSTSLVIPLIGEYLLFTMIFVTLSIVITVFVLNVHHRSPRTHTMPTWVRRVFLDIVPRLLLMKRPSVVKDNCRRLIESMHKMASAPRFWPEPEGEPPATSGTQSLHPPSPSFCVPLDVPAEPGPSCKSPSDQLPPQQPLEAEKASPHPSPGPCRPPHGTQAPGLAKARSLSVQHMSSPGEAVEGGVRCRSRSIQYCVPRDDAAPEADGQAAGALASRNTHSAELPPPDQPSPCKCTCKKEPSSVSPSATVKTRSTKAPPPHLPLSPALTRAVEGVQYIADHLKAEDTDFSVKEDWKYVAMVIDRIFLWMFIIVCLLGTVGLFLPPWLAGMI

Take `O=C1C(O)=C([C@H]2CC[C@H](c3ccc(Cl)cc3)CC2)C(=O)c2ccccc21` [ATOVAQUONE]: the AC50 (in assay [1]; in assay [2]; in [3]; in assay [4]; at Histamine H2 receptor; in assay [5]) was more than 30 µM each time. Besides, the AC50 (on Adenosine receptor A2a; in assay [6]; in assay [7]; in assay [8]; on Adenosine receptor A3; in [9]) was more than 30 µM throughout.

As for `Nc1nc(Cl)nc2c1ncn2[C@H]1C[C@H](O)[C@@H](CO)O1` [CLADRIBINE], the AC50 (in assay [1]; in [2]; in [3]; in assay [4]; on Histamine H2 receptor; in assay [5]) was more than 30 µM throughout. The AC50 (on Adenosine receptor A2a; in assay [6]; in [7]; in assay [8]; on Adenosine receptor A3; in [9]) was more than 30 µM in each case.

With `NC(=O)CN1CC(O)CC1=O` (stereo unspecified) [OXIRACETAM], the AC50 (in [1]; in assay [2]; in [3]; in [4]; on Histamine H2 receptor; in assay [5]) was more than 30 µM throughout. Moreover, the concentration at half-maximal activity (AC50) (on Adenosine receptor A2a; in assay [6]; in assay [7]; in assay [8]; on Adenosine receptor A3; in [9]) was more than 30 µM each time.

As to `C#C[C@]1(O)CC[C@H]2[C@@H]3[C@H](C)CC4=C(CCC(=O)C4)[C@H]3CC[C@@]21C` [TIBOLONE], the AC50 (in assay [1]; in assay [2]; in assay [3]; in [4]; on Histamine H2 receptor; in assay [5]) was more than 30 µM in each case. The AC50 is more than 30 µM at Adenosine receptor A2a; more than 30 µM in assay [6]; more than 30 µM in [7]; more than 30 µM in [8]; 8.1 µM on Adenosine receptor A3; more than 30 µM in [9].

In the case of `COc1cccc(C2(O)CCCCC2CN(C)C)c1` (stereo unspecified) [TRAMADOL], the AC50 in assay [2] was more than 30 µM; in assay [3], more than 30 µM; in [4], more than 10 µM; at Histamine H2 receptor, more than 10 µM; in [5], more than 10 µM; on Adenosine receptor A2a, more than 30 µM. Further, the AC50 is more than 10 µM in assay [6]; more than 30 µM in assay [7]; more than 30 µM in [8]; more than 30 µM on Adenosine receptor A3; more than 30 µM in assay [9].

In the case of `Cc1nnc2n1-c1ccc(Cl)cc1C(c1ccccc1Cl)=NC2` [TRIAZOLAM], the AC50 in [1] was more than 10 µM; in assay [2] it was more than 30 µM; in [3] it was more than 30 µM; in assay [4], more than 10 µM; on Histamine H2 receptor, more than 10 µM; in assay [5], more than 10 µM. In addition, the AC50 at Adenosine receptor A2a is more than 30 µM; in assay [6], more than 30 µM; in [7], 14 µM; in assay [8], more than 30 µM; on Adenosine receptor A3 it was more than 30 µM; in assay [9], more than 30 µM.
